Experimental data as given in patent publication US8314092B2, “Substituted [(5H-pyrrolo[2,1-c][1,4]benzodiazepin-11-yl)piperazin-1-yl]-2,2-dimethylpropanoic acid compounds as dual activity H1 inverse agonists/5-HT2A antagonists” (Eli Lilly and Company, priority 2011, dated 2012).
Counter-ions that a name gives are not always drawn.

Assays:
[1] = target: 5-HT6 (Homo sapiens, UniProt P50406); assay: 5-HT6 binding
From the text: (§1) Further, the compounds of the invention may be tested in binding assays and functional activity assays by well known methods for other physiologically important receptors such as, but not limited to, the hERG channel, other serotonin receptors (specifically 5-HT1A, 5-HT1B, 5-HT1D, 5-HT1E, 5-HT1F receptors, lack of agonist activity at 5-HT2B receptors, 5-HT2C, 5-HT4, 5-HTS, 5-HT6, and 5-HT7 receptors), muscarinic receptors, dopaminergic receptors (specifically D1, D2, and D3), GABAA receptors, adrenergic receptors and monoamine transporters. Certain exemplified compounds are tested at these receptors and are shown to lack significant activity.

[2] = target: 5-HT5 (Homo sapiens, UniProt P47898); assay: 5-HT5 binding
From the text: as §1

[3] = target: 5-HT1E (Homo sapiens, UniProt P28566); assay: 5-HT1E binding
From the text: as §1

[4] = target: T1, H1 receptor (Rattus norvegicus, UniProt P31390); assay: Histamine H1 receptor occupancy in vivo (doxepin tracer); settings: oral gavage, 1 hour before tracer, read-out: H1 RO EC50
T1 construct: from tissue; host or cells: living rat; frontal cortex
Protocol: Statistical Methods: Curves for each study are fitted to a 4 parameter logistic function with the bottom fixed at 0% using JMP® version 8.0 (SAS Institute Inc, Cary N.C.) and the absolute ED50 is calculated by the software. Values are given as means, standard errors and 95% confidence intervals. […] Briefly, male Sprague-Dawley rats (Harlan Sprague-Dawley, Indianapolis, Ind.) weighing approximately 230-280 grams are given ad lib access to food and water until the beginning of the 3-hour experimental protocol. 3-[4-(8-Fluorodibenzo[b,f][1,4]oxazepin-1′-yl)piperazin-1-yl]-2,2-dimethylpropanoic acid dihydrochloride is used as a positive control and doxepin is used as a tracer. Test compounds and control are administered by oral gavage in a vehicle comprised of 20% hydroxypropyl beta-cyclodextrin. Doxepin is dissolved in sterile water (100 μg/ml), diluted to 2 μg/ml with saline, and administered in a volume of 0.5 mL/kg intravenously via the lateral tail vein to yield a tracer dose of 1 μg/kg. Rats are administered test compound, 15 mg/kg positive control, or vehicle, followed 1 hour later by an intravenous “tracer” dose of doxepin (N=4). It is at the time of tracer administration that RO is considered to be measured. 40 mins after tracer administration, rats are sacrificed by cervical dislocation. Plasma samples are collected and the frontal cortex is removed. […]

[5] = target: 5-HT2B receptors (Homo sapiens, UniProt P41595); assay: 5-HT2B agonist functional activity assay; type: cell-based
From the text: as §1

Sequence of 5-HT6 (P50406 whole entry, species assumed): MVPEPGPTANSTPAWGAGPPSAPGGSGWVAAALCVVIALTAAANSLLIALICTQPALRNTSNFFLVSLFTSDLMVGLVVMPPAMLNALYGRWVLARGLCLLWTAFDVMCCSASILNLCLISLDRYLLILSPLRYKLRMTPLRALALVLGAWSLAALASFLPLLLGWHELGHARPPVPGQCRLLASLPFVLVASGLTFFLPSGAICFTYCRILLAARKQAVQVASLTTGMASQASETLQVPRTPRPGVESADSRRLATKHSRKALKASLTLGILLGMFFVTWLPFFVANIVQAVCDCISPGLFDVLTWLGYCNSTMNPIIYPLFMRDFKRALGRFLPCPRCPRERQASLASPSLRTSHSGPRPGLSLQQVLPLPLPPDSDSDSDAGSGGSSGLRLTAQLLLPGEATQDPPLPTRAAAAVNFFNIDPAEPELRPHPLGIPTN
Sequence of 5-HT5 (P47898 whole entry, species assumed): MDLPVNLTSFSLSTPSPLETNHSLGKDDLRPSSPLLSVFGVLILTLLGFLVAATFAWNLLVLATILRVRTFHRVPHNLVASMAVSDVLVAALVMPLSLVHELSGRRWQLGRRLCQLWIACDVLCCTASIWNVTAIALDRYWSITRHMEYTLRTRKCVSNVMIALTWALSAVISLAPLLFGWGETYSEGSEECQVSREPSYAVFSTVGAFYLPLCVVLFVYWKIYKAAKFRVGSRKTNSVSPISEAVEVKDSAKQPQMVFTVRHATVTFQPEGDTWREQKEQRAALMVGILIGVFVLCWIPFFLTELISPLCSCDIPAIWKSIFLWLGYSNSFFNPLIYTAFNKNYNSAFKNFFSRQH
T1 sequence (P31390 whole entry): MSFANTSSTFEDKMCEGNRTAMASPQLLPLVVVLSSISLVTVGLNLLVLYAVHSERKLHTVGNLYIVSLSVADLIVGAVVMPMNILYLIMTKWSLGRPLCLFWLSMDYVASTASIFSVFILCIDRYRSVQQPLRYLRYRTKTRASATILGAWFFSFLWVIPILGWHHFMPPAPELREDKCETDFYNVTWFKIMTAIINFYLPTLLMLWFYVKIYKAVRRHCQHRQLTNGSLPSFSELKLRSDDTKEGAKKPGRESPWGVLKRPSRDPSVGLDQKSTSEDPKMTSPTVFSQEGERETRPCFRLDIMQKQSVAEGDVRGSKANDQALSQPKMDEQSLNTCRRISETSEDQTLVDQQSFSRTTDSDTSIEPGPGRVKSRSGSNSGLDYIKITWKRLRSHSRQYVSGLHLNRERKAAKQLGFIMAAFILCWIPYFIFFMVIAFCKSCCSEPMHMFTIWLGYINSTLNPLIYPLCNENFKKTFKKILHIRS
Sequence of 5-HT2B receptors (P41595 whole entry): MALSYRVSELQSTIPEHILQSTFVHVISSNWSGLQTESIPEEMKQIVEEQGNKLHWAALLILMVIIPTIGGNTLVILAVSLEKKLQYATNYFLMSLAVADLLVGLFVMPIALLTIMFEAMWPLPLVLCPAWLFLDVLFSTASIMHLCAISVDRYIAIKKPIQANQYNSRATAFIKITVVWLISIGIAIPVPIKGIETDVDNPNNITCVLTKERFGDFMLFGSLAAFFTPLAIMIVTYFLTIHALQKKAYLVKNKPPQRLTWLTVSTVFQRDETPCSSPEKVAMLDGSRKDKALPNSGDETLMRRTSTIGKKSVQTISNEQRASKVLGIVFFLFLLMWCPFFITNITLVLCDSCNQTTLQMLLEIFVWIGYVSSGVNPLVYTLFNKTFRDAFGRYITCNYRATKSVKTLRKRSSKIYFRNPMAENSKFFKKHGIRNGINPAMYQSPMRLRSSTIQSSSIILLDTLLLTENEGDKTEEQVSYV
Sequence of 5-HT1E (P28566 whole entry, species assumed): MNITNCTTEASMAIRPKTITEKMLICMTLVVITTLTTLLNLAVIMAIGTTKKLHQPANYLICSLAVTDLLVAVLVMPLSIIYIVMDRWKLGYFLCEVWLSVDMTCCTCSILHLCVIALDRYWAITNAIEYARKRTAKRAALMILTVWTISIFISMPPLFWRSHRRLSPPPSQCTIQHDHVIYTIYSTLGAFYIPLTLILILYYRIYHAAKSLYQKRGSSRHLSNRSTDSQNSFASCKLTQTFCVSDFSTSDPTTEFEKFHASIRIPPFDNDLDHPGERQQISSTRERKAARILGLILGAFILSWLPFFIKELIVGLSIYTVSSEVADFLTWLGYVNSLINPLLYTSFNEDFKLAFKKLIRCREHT

Question: How did the Ki [1] turn out when Cc1cc2n(c1)Cc1cc(Cl)ccc1N=C2N1CCN(CC(C)(C)C(=O)O)CC1 [Example 13, 3-[4-(7-Chloro-2-methyl-5H-pyrrolo[2,1-c][1,4]benzodiazepin-11-yl)piperazin-1-yl]-2,2-dimethylpropanoic acid dihydrochloride] was run?
Answer: The Ki was greater than 5.83 µM.

Question: And the Ki [2]?
Answer: The Ki was greater than 9.09 µM.

Question: And the Ki [3]?
Answer: Its Ki is greater than 5.37 µM.

Question: What about the ED50 [4] of the same molecule?
Answer: The ED50 was 0.3 mg/kg.

Question: And the EC50 [5]?
Answer: The EC50 was greater than 10 µM.
